How the values were obtained:
Type in all cases: cell-based, Staphylococcus aureus
[1] = test system: TSST-1 production by S. aureus (MN8)
S. aureus (MN8) = test system: S. aureus (MN8)
[2] = test system: TSST-1 production by S. aureus FRI-1187
[3] = test system: TSST-1 production by S. aureus FRI-1169

Compound: 4-hydroxydiphenyl methane [4-Hydroxydiphenyl-methane]
- ELISA: TSST-1 ng/OD unit [1]: 785 ng/OD unit
- CFU/mL (S. aureus (MN8)): 1.1E+08 CFU/mL
- Optical Density 600 nm (S. aureus (MN8)): 0.581

Compound: Oc1c(Cl)cc(Cl)c(Cl)c1Cc1c(O)c(Cl)cc(Cl)c1Cl [Hexachlorophene, hexachlorophene]
- ELISA: TSST-1 ng/OD unit [1]: 330 ng/OD unit

Compound: Oc1cc(Cl)ccc1Oc1ccc(Cl)cc1Cl [Triclosan, triclosan]
- ELISA: TSST-1 ng/OD unit [2]: 95 ng/OD unit
- Reduction of Toxin % [2]: 86%
- ELISA: TSST-1 ng/OD unit [3]: 40 ng/OD unit
- Reduction of Toxin % [3]: 96%

— US20080096850A1 (priority 2001, published 2008)
